Measured values as given in the supplement of paper PMC12463676, “Small-molecule dissolution of stress granules by redox modulation benefits ALS models” (Nature Chemical Biology, 2025).

Tests used:
[1] = compound: NC(=O)CCCCC1CCSS1 [lipoamide]; assay: thermal stability z-score vs DMSO; higher = more thermally stabilized by treatment; details: HeLa, lipoamide concentration 100 µM
Experimental: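 Cellular thermal proteome profiling in HeLa cells. Cells were treated with 100 µM lipoamide for 1 h, with or without 1 mM arsenate for a further 1 h, then heated to ten temperatures (37-66.3 °C), and soluble protein was quantified by TMT mass spectrometry relative to 0.1% DMSO controls. The thermal stability score (sum of log2 fold changes minus the abundance score) was transformed to a z-score; mean of n = 3 experiments.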

[2] = compound: O=[As]([O-])(O)O.[K+] [potassium arsenate]; assay: as above; details: HeLa; arsenate concentration 1 mM
Experimental: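 Cellular thermal proteome profiling in HeLa cells treated with 1 mM arsenate for 1 h (DMSO pretreatment), heated to ten temperatures (37-66.3 °C). Soluble protein was quantified by TMT mass spectrometry relative to DMSO controls; the thermal stability score was transformed to a z-score; mean of n = 3 experiments.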

[3] = arsenate co-treatment: 1 mM arsenate 1 h
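Also: each temperature applied for 3 min, abundance score taken as mean log2 fold change at the two lowest temperatures, z-score obtained by mean subtraction and division by SD.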

Sequence of UniProt Q9BY67 (Q9BY67 whole entry): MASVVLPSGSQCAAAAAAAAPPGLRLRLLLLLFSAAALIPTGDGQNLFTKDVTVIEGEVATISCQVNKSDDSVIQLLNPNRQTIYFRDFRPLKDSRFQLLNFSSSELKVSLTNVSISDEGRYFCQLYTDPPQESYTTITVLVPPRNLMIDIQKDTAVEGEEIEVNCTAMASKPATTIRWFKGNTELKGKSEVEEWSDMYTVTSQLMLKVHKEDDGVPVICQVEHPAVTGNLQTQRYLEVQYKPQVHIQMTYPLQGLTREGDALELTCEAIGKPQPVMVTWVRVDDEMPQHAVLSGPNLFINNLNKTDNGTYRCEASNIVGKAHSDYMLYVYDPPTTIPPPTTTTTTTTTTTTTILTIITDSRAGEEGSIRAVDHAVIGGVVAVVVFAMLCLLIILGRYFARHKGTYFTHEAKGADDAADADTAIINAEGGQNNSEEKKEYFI
Sequence of UniProt Q9NWZ5 (Q9NWZ5 whole entry): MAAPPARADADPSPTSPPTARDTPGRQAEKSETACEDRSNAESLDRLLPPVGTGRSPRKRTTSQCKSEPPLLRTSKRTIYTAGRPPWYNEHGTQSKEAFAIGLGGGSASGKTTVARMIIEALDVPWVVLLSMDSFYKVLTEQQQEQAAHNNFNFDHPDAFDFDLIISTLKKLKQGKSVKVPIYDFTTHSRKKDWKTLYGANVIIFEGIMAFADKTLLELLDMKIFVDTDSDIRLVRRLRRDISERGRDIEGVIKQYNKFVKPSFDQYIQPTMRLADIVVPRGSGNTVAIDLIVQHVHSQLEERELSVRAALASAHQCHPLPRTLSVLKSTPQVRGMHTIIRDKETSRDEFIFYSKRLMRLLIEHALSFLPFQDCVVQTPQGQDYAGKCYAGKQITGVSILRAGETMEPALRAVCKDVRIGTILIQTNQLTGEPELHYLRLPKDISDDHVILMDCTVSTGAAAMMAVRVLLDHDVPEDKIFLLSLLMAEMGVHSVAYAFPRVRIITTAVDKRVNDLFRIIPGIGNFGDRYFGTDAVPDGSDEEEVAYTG
Sequence of UniProt P52294 (P52294 whole entry): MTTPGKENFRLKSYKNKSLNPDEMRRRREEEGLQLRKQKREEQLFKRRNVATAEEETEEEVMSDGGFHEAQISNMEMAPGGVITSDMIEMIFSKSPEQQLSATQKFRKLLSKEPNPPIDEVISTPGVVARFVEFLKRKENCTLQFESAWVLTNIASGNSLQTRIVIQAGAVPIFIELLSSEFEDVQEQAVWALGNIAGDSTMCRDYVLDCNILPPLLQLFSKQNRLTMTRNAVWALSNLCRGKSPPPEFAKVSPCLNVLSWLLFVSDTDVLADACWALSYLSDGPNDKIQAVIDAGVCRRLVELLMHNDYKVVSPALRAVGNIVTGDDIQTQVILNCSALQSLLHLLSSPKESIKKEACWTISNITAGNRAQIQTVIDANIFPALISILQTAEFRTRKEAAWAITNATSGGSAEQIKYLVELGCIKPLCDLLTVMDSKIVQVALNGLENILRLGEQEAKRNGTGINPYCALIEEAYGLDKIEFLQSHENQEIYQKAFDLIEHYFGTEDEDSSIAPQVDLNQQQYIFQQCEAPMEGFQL
Sequence of UniProt Q8IV08 (Q8IV08 whole entry): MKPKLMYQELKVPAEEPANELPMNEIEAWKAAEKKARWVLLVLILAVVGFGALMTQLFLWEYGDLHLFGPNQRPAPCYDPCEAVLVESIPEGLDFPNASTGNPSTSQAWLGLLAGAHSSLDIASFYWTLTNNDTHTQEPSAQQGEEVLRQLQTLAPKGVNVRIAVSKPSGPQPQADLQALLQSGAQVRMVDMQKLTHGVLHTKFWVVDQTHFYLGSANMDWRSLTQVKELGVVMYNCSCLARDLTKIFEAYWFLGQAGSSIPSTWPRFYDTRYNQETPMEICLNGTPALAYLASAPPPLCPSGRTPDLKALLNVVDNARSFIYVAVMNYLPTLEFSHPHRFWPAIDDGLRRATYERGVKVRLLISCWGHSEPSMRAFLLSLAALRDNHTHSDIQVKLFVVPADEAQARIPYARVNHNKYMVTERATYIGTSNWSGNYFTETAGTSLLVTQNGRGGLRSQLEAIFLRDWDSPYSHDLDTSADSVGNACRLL
Sequence of UniProt O00194 (O00194 whole entry): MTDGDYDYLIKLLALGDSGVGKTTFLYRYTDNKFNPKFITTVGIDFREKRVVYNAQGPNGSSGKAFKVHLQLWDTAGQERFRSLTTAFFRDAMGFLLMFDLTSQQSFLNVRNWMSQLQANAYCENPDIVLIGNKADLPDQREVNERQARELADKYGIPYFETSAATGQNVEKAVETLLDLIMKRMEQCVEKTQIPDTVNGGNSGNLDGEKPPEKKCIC
Sequence of UniProt P48553 (P48553 whole entry): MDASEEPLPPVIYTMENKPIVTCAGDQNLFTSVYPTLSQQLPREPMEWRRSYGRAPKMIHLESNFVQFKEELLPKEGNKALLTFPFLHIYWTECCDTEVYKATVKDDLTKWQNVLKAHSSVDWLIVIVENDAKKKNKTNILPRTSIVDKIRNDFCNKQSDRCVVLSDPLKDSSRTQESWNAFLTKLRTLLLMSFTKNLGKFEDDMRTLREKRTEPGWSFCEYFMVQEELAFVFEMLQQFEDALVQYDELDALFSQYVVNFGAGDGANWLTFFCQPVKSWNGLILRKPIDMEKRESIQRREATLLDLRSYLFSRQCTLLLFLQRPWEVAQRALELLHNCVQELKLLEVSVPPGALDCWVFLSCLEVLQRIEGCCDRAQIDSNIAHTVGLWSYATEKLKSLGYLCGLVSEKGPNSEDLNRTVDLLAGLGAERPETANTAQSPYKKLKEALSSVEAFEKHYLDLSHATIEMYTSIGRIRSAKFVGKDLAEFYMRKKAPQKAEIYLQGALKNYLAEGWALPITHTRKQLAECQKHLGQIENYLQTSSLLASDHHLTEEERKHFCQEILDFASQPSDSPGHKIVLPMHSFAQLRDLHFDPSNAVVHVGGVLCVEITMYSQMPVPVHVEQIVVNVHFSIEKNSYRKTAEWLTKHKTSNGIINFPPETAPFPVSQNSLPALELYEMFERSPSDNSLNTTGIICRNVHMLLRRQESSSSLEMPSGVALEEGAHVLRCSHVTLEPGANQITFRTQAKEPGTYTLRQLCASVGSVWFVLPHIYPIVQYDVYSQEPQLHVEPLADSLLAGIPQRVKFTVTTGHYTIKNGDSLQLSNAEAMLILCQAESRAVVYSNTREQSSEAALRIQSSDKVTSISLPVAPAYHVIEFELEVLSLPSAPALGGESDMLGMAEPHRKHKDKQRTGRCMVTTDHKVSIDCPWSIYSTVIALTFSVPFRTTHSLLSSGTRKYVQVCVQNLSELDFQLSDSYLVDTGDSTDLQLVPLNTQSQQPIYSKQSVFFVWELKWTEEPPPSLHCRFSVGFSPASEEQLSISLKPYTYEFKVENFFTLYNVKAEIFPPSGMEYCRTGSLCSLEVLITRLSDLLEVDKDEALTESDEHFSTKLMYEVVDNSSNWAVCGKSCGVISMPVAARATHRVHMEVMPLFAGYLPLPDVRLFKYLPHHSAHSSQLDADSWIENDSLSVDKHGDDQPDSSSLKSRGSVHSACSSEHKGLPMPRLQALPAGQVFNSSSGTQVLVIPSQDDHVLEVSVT
Sequence of UniProt Q6UX04 (Q6UX04 whole entry): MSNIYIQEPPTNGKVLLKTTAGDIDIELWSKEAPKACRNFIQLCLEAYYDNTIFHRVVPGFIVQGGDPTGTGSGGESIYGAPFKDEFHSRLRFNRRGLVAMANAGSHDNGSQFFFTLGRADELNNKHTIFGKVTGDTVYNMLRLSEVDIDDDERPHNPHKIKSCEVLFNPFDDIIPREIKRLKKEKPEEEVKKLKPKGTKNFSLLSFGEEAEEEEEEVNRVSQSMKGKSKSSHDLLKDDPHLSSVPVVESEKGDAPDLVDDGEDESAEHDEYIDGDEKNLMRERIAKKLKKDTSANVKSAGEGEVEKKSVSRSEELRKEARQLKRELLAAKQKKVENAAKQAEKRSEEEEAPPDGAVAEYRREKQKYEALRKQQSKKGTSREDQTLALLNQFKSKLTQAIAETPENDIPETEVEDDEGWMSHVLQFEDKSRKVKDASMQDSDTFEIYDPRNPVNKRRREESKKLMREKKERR
Sequence of UniProt Q15007 (Q15007 whole entry): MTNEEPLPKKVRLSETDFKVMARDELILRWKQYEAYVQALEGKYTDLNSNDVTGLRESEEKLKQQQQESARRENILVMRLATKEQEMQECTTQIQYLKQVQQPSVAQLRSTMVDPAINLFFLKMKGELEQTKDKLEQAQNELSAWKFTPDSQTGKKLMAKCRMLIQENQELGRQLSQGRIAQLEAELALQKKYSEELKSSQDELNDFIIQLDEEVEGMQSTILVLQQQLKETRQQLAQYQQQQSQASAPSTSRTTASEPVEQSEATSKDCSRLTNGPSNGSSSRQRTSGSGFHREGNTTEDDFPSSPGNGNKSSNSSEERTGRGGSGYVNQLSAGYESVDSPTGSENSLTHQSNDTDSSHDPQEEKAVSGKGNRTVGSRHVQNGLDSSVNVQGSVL
Sequence of UniProt Q9HCU5 (Q9HCU5 whole entry): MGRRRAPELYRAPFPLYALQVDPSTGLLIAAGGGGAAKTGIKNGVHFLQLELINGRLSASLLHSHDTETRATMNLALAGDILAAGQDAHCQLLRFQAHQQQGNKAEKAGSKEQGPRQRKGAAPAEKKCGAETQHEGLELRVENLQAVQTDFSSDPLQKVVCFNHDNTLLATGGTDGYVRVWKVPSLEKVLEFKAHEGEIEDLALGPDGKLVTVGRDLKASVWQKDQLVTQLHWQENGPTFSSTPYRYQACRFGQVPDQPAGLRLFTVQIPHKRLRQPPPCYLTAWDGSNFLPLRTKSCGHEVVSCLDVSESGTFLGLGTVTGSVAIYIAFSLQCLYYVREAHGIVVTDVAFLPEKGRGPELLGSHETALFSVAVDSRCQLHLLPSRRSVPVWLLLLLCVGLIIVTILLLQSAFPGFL
Sequence of UniProt P63146 (P63146 whole entry): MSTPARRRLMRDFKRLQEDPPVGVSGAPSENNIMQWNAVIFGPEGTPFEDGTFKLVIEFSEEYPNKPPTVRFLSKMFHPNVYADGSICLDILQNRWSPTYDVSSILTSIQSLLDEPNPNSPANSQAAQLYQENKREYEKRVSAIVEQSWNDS

Target | thermal stability z-score [1, 3] | thermal stability z-score ([1]; arsenate co-treatment: none) | thermal stability z-score [2]
HNRNPUL1 (UniProt Q9BUJ2) | 0.162 | 0.44 | 0.283
OXSM (UniProt Q9NWU1) | -0.024 | 0.0818 | 0.51
TBL3 (UniProt Q12788) | 0.0946 | -0.105 | -0.338
PLD3 (UniProt Q8IV08) | 0.32 | 0.424 | 0.817
SNX27 (UniProt Q96L92) | -0.141 | 0.167 | 0.511
PREB (UniProt Q9HCU5) | -0.337 | -0.353 | -0.0461
CASK (UniProt O14936) | 0.388 | 0.281 | -0.0604
ACP1 (UniProt P24666) | -0.147 | -0.0266 | -1.2
CADM1 (UniProt Q9BY67) | 0.995 | 0.905 | 0.376
ITSN2 (UniProt Q9NZM3) | -0.803 | -1.23 | -0.725
EDF1 (UniProt O60869) | 0.657 | 0.578 | 0.199
KPNA1 (UniProt P52294) | -0.0607 | -0.0226 | 0.239
TM9SF4 (UniProt Q92544) | -0.593 | -0.263 | 0.734
DDX31 (UniProt Q9H8H2) | 0.19 | 0.0101 | -0.348
WTAP (UniProt Q15007) | 0.0767 | 0.0181 | -0.059
EIF4A2 (UniProt Q14240) | 1.14 | 0.893 | 0.658
SCPEP1 (UniProt Q9HB40) | -0.372 | 0.187 | -0.196
RGS10 (UniProt O43665) | 0.748 | 0.902 | 0.0472

Target | thermal stability z-score [1, 3] | thermal stability z-score ([1]; arsenate co-treatment: none) | thermal stability z-score [2]
UCKL1 (UniProt Q9NWZ5) | -0.158 | -0.483 | 0.0426
LSM7 (UniProt Q9UK45) | 0.466 | 0.456 | -0.425
NDUFS1 (UniProt P28331) | 0.106 | 0.134 | 0.842
RTKN (UniProt Q9BST9) | -0.183 | -0.084 | -0.395
ACSF3 (UniProt Q4G176) | -0.68 | 0.39 | 0.298
CWC27 (UniProt Q6UX04) | 0.0242 | -0.348 | -0.344
UBE2B (UniProt P63146) | 0.48 | -0.354 | -0.132
PSME2 (UniProt Q9UL46) | 0.493 | 0.0915 | 0.951
RAB27B (UniProt O00194) | 0.463 | 0.0912 | 0.58
APTX (UniProt Q7Z2E3) | 0.0235 | 0.0974 | -0.253
SAMD9 (UniProt Q5K651) | -0.0476 | -0.0624 | -0.13
TRAPPC10 (UniProt P48553) | 0.191 | 0.411 | 0.381
ACADSB (UniProt P45954) | 0.39 | 0.509 | 0.00788
MVB12A (UniProt Q96EY5) | 0.652 | -0.0184 | 0.35
LMBRD2 (UniProt Q68DH5) | -0.904 | -0.0118 | -0.111
GTF2H3 (UniProt Q13889) | 0.0675 | -0.229 | -0.106
RRP1 (UniProt P56182) | 0.0258 | 0.131 | 0.671
MAGEA1 (UniProt P43355) | 0.195 | 0.0019 | 1.03
